Bridge positions count the residues as written; N and C are the ends. Square brackets hold non-standard residues; d marks the D form. Peptide text beside a SMILES is read from it. S8 = C=CCCCCCC[C@](C)(N)C(=O)O; R5 = C=CCCC[C@@](C)(N)C(=O)O
B1: SP609, Ac-LTF$r8EYWAAibL$AAAAAa-NH2 (peptide)
peptide: LTFAEYWAXLAAAAAAA
modifications: not fully specified; N-terminal acetyl; $r8 at 4 crosslinked by all-carbon olefin staple to $ at 11; Aib (2-aminoisobutyric acid) at 9; D-Ala (a) at C-terminus; C-terminal amide
notes: stapled peptidomimetic macrocycle
B2: SP686, 5-TAMRA-BaLTF$r8EYWAQCba$SAA-NH2 (peptide)
peptide: ALTFAEYWAQAASAA
modifications: not fully specified; N-terminal 5-TAMRA on beta-alanine (Ba); $r8 crosslinked by all-carbon olefin staple to $; Cba (cyclobutyl alanine); C-terminal amide
notes: TAMRA-labeled stapled peptidomimetic macrocycle
B3: SP608, Ac-LTF$r8EYWALL$AAAAAa-NH2 (peptide)
peptide: LTFAEYWALLAAAAAAA
modifications: not fully specified; N-terminal acetyl; $r8 at 4 crosslinked by all-carbon olefin staple to $ at 11; D-Ala (a) at C-terminus; C-terminal amide
notes: as for B1
B4: SP610, Ac-LTF$r8EYWASL$AAAAAa-NH2 (peptide)
peptide: LTFAEYWASLAAAAAAA
modifications: not fully specified; N-terminal acetyl; $r8 at 4 crosslinked by all-carbon olefin staple to $ at 11; D-Ala (a) at C-terminus; C-terminal amide
notes: as for B1
B5: SP613, Ac-LTF$r8EYWAHL$AAAAAa-NH2 (peptide)
peptide: LTFAEYWAHLAAAAAAA
modifications: not fully specified; N-terminal acetyl; $r8 at 4 crosslinked by all-carbon olefin staple to $ at 11; D-Ala (a) at C-terminus; C-terminal amide
notes: as for B1
B6: SP611, Ac-LTF$r8EYWANL$AAAAAa-NH2 (peptide)
peptide: LTFAEYWANLAAAAAAA
modifications: not fully specified; N-terminal acetyl; $r8 at 4 crosslinked by all-carbon olefin staple to $ at 11; D-Ala (a) at C-terminus; C-terminal amide
notes: as for B1
B7: SP612, Ac-LTF$r8EYWACitL$AAAAAa-NH2 (peptide)
peptide: LTFAEYWAXLAAAAAAA
modifications: not fully specified; N-terminal acetyl; $r8 at 4 crosslinked by all-carbon olefin staple to $ at 11; Cit (citrulline) at 9; D-Ala (a) at C-terminus; C-terminal amide
notes: as for B1
B8: SP433, Ac-LTF$r8EYWCou7QCba$SAA-NH2 (peptide)
peptide: LTFAEYWXQAASAA
modifications: not fully specified; N-terminal acetyl; $r8 at 4 crosslinked by all-carbon olefin staple to $ at 11; Cou7 at 8 (structure shown only as a drawing); Cba (cyclobutyl alanine) at 10; C-terminal amide
notes: as for B1
B9: SP595, Ac-LTF$r8EYWAQCba$S-NH2 (peptide)
peptide: LTFAEYWAQAAS
modifications: not fully specified; N-terminal acetyl; $r8 at 4 crosslinked by all-carbon olefin staple to $ at 11; Cba (cyclobutyl alanine) at 10; C-terminal amide
notes: as for B1

Legend:
[1] = system: SJSA-1; test: Cell viability assay (MTT), SJSA-1; settings: read-out: SJSA-1 EC50 (72 h); 72 h, MTT
[2] = system: RKO; test: Cell viability assay (MTT), RKO; settings: read-out: RKO EC50 (72 h)
[3] = system: Caspase 3; test: Caspase 3 detection assay in SJSA1 cells; type: cell-based; settings: SJSA1, 48 h, Caspase 3 activation over DMSO-treated cells
[4] = system: SJSA-1 cells; test: Cell lysis by peptidomimetic macrocycles (LDH release); type: cell-based; settings: SJSA-1, 1 h
Outline: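 Membrane lysis measured as supernatant LDH after a 1 h, 37 °C exposure of SJSA-1 cells, held in RPMI with 1% FBS, to macrocycles at final 6.25-50 μM with 0.5% DMSO. Lytic references were 10 μM melittin and 1% Triton X-100; DMSO alone served as non-lytic control.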

[5] = Circular dichroism (CD) analysis of alpha-helicity; type: physicochemical; settings: for Molar Ellipticity TFE − Molar Ellipticity Benign / Molar Ellipticity 50% TFE (222 in 50% TFE) / Molar Ellipticity Benign (222 in 0% TFE): 222 nm; for Molar Ellipticity 50% TFE (222 in 50% TFE): CD buffer with 50% TFE; for Molar Ellipticity 50% TFE (222 in 50% TFE) / Molar Ellipticity Benign (222 in 0% TFE): 0.05 mg/ml, 4° C.; for Molar Ellipticity Benign (222 in 0% TFE): benign CD buffer (20 mM phosphoric acid, pH 2); for % Helix benign compared to 50% TFE parent (CD): benign buffer
Description: Peptide solutions were analyzed by CD spectroscopy using a Jasco J-815 spectropolarimeter (Jasco Inc., Easton, Md.) with the Jasco Spectra Manager Ver. 2 system software. A Peltier temperature controller was used to maintain temperature control of the optical cell. Results are expressed as mean molar ellipticity (deg cm^2 dmol^−1) as calculated from the equation [0]=θobs·MRW/10*l*c where θobs is the observed ellipticity in millidegrees, MRW is the mean residue weight of the peptide (peptide molecular weight/number of residues), 1 is the optical path length of the cell in centimeters, and c is the peptide concentration in mg/ml. Peptide concentrations were determined by amino acid analysis. Stock solutions of peptides were prepared in benign CD buffer (20 mM phosphoric acid, pH 2). The stocks were used to prepare peptide solutions of 0.05 mg/ml in either benign CD buffer or CD buffer with 50% trifluoroethanol (TFE) for analyses in a 10 mm pathlength cell. Variable wavelength measurements of peptide solutions were scanned at 4° C. from 195 to 250 nm, in 0.2 nm increments, and a scan rate 50 nm per minute. The average of six scans was reported.

[6] = target: T1, MDM2 (In-house, 41 kD) (UniProt Q00987 1-125, limits assumed); test: competitive fluorescence polarization, displacement of FAM-labeled linear peptide from MDM2; grade decoded by the scale of Table 4
T1 construct: Construct limits and any tag are unknown; also called HDM2
T1 sequence (Q00987 1-125 limits assumed): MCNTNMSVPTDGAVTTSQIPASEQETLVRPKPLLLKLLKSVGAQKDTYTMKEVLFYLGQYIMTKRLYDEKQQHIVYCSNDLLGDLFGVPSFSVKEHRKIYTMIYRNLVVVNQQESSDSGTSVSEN

| Molecule | EC50 [1] | EC50 [2] | caspase 3 μM [3] | caspase 10 μM [3] | caspase 30 μM [3] | 6.25 μM % Lysed cells (1 h LDH) [4] | 25 μM % Lysed cells (1 h LDH) [4] | 50 μM % Lysed cells (1 h LDH) [4] | Ki [6] | further results |
| --- | --- | --- | --- | --- | --- | --- | --- | --- | --- | --- |
| CC[C@H](C)[C@H](NC(=O)[C@H](C)NC(=O)[C@H](C)NC(=O)[C@]1(C)CCCC=CCCCCCC[C@@](C)(NC(=O)[C@H](Cc2ccccc2)NC(=O)[C@@H](NC(=O)[C@H](CC(C)C)NC(C)=O)[C@@H](C)O)C(=O)N[C@@H](C)C(=O)N[C@@H](Cc2ccc(O)cc2)C(=O)N[C@@H](Cc2c[nH]c3ccccc23)C(=O)N[C@@H](C)C(=O)N[C@@H](CCC(N)=O)C(=O)N[C@@H](CC(C)C)C(=O)N1)C(=O)N[C@@H](C)C(N)=O (single isomer, unassigned) [compound 65] | < 5 µM | 5 to 15 µM | 6 | 28 | 34 | 0% | 0% | 2% |  | caspase 0.3 μM [3]: 1 |
| CC[C@H](C)[C@H](NC(=O)[C@H](C)NC(=O)[C@H](C)NC(=O)[C@]1(C)CCCC=CCCCCCC[C@@](C)(NC(=O)[C@H](Cc2ccccc2)NC(=O)[C@@H](NC(=O)[C@H](CC(C)C)NC(C)=O)[C@@H](C)O)C(=O)N[C@@H](C)C(=O)N[C@@H](Cc2ccc(O)cc2)C(=O)N[C@@H](Cc2c[nH]c3ccccc23)C(=O)N[C@@H](C)C(=O)N[C@@H](CCC(N)=O)C(=O)N[C@@H](CC(C)C)C(=O)N1)C(=O)N[C@H](C)C(N)=O (single isomer, unassigned) [compound 70] | < 5 µM | < 5 µM | 1 | 9 | 26 |  |  |  |  |  |
| CCCC[C@H](NC(=O)[C@H](C)NC(=O)[C@H](C)NC(=O)[C@]1(C)CCCC=CCCCCCC[C@@](C)(NC(=O)[C@H](Cc2ccccc2)NC(=O)[C@@H](NC(=O)[C@H](CC(C)C)NC(C)=O)[C@@H](C)O)C(=O)N[C@@H](C)C(=O)N[C@@H](Cc2ccc(O)cc2)C(=O)N[C@@H](Cc2c[nH]c3ccccc23)C(=O)N[C@@H](C)C(=O)N[C@@H](CCC(N)=O)C(=O)N[C@@H](CC(C)C)C(=O)N1)C(=O)N[C@H](C)C(N)=O (single isomer, unassigned) [compound 75] | < 5 µM |  |  |  |  | −1% | 1% | 1% |  |  |
| CCCC[C@H](NC(=O)[C@H](C)NC(=O)[C@H](C)NC(=O)[C@]1(C)CCC/C=C/CCCCCC[C@@](C)(NC(=O)[C@H](Cc2ccccc2)NC(=O)[C@@H](NC(=O)[C@H](CC(C)C)NC(C)=O)[C@@H](C)O)C(=O)N[C@@H](C)C(=O)N[C@@H](Cc2ccc(O)cc2)C(=O)N[C@@H](Cc2c[nH]c3ccccc23)C(=O)N[C@@H](C)C(=O)N[C@@H](CCC(N)=O)C(=O)N[C@@H](CC(C)C)C(=O)N1)C(=O)N[C@@H](C)C(N)=O [compound 69] | < 5 µM | < 5 µM | 16.39 | 26.59 | 26.11 | 1% | −0.5% | 5% |  | % Helix 50% TFE compared to 50% TFE parent (CD) [5]: 148.2%; Molar Ellipticity TFE − Molar Ellipticity Benign [5]: −21407.1 deg cm^2 dmol^−1; Molar Ellipticity 50% TFE (222 in 50% TFE) [5]: −21509.7 deg cm^2 dmol^−1; Molar Ellipticity Benign (222 in 0% TFE) [5]: −102.6 deg cm^2 dmol^−1; % Helix benign compared to 50% TFE parent (CD) [5]: 0.7%; caspase 0.3 μM [3]: 4.34; caspase 1 μM [3]: 9.51 |
| CC[C@H](C)[C@H](NC(=O)[C@H](C)NC(=O)[C@H](C)NC(=O)[C@]1(C)CCC/C=C/CCCCCC[C@@](C)(NC(=O)[C@H](Cc2ccccc2)NC(=O)[C@@H](NC(=O)[C@H](CC(C)C)NC(C)=O)[C@@H](C)O)C(=O)N[C@@H](C)C(=O)N[C@@H](Cc2ccc(O)cc2)C(=O)N[C@@H](Cc2c[nH]c3ccccc23)C(=O)N[C@@H](C)C(=O)N[C@@H](CCC(N)=O)C(=O)N[C@@H](CC(C)C)C(=O)N1)C(=O)N[C@H](C)C(N)=O [compound 71] | < 5 µM | < 5 µM | 3.68 | 14.72 | 23.52 | 0% | 0% | 0% |  | % Helix 50% TFE compared to 50% TFE parent (CD) [5]: 123.7%; Molar Ellipticity TFE − Molar Ellipticity Benign [5]: −17835.9 deg cm^2 dmol^−1; Molar Ellipticity 50% TFE (222 in 50% TFE) [5]: −17957 deg cm^2 dmol^−1; Molar Ellipticity Benign (222 in 0% TFE) [5]: −121.2 deg cm^2 dmol^−1; % Helix benign compared to 50% TFE parent (CD) [5]: 0.8%; caspase 0.3 μM [3]: 0.95; caspase 1 μM [3]: 1.02 |
| CC(=O)N[C@@H](CC(C)C)C(=O)N[C@H](C(=O)N[C@@H](Cc1ccccc1)C(=O)N[C@]1(C)CCCCCC/C=C/CCC[C@@](C)(C(=O)N[C@@H](C)C(=O)N[C@@H](C)C(=O)N[C@@H](C)C(=O)N[C@@H](C)C(=O)N[C@@H](C)C(=O)N[C@H](C)C(N)=O)NC(=O)[C@H](CC(C)C)NC(=O)[C@H](CCC(N)=O)NC(=O)[C@H](C)NC(=O)[C@H](Cc2c[nH]c3ccccc23)NC(=O)[C@H](Cc2ccc(O)cc2)NC(=O)[C@H](CCC(=O)O)NC1=O)[C@@H](C)O [compound 331] | < 5 µM | < 5 µM | 11 | 14.5 | 30.5 | 0% | 0% | 0% |  | caspase 0.3 μM [3]: 4.5; caspase 1 μM [3]: 8 |
| CC(=O)N[C@@H](CC(C)C)C(=O)N[C@H](C(=O)N[C@@H](Cc1ccccc1)C(=O)N[C@]1(C)CCCC=CCCCCCC[C@@](C)(C(=O)N[C@@H](C)C(=O)N[C@@H](C)C(=O)N[C@@H](C)C(=O)N[C@@H](C)C(=O)N[C@@H](C)C(=O)N[C@H](C)C(N)=O)NC(=O)[C@H](CC(C)C)NC(=O)[C@H](CCC(N)=O)NC(=O)[C@H](C)NC(=O)[C@H](Cc2c[nH]c3ccccc23)NC(=O)[C@H](Cc2ccc(O)cc2)NC(=O)[C@H](CCC(=O)O)NC1=O)[C@@H](C)O [compound 631] (Ac-LTF[R5]EYWAQL[S8]AAAAA[dA]-NH2; staple 4-11) | < 5 µM |  |  |  |  |  |  |  |  |  |
| B1 |  |  |  |  |  |  |  |  | ≤ 10 nM |  |
| B2 |  |  |  |  |  |  |  |  | ≤ 10 nM |  |
| B3 |  |  |  |  |  |  |  |  | ≤ 10 nM |  |
| B4 |  |  |  |  |  |  |  |  | ≤ 10 nM |  |
| B5 |  |  |  |  |  |  |  |  | ≤ 10 nM |  |
| B6 |  |  |  |  |  |  |  |  | ≤ 10 nM |  |
| B7 |  |  |  |  |  |  |  |  | ≤ 10 nM |  |
| B8 |  |  |  |  |  |  |  |  | ≤ 10 nM |  |
| B9 |  |  |  |  |  |  |  |  | > 1000 nM |  |

— US20200369728A1, “PEPTIDOMIMETIC MACROCYCLES AND USES THEREOF” (Aileron Therapeutics, Inc., priority 2015, published 2020)
